Laboratory results from PubChem BioAssay AID2202554 (NIEHS Division of Translational Toxicology (DTT)).
Records with an inconclusive call do not appear. Activity calls are given as the source filed them. No rule for the calls is given here.

Test system: S. typhimurium/E. coli reverse mutation, colony counts
Experiment: Bacterial reverse mutation test (aka Ames test) summary data
In short: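 S. typhimurium his⁻ strains (TA97–TA1538) and E. coli WP2 uvrA pKM101 trp⁻, dosed over a range with or without rat, hamster or mouse liver S9. Preincubated 20 min at 37° C (or plate incorporation), plated in agar, incubated usually two days. Revertant colonies counted against negative controls.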

Q: For `O=C(Nc1cccc2c(=O)c3c(ccc4c5cc(NC(=O)c6ccccc6)c6c(=O)c7ccccc7c(=O)c6c5[nH]c43)c(=O)c12)c1ccccc1`, which outcome is on record?
A: Its outcome is “inactive; negative”.

Q: `C=CC` was tested. Which outcome did it give?
A: Its outcome is “active; positive”.

Q: For `C/C=C/C=C/C(=O)O`, which outcome is on record?
A: Its outcome is “inactive; negative”.

Q: `OC1C2(Cl)C3(Cl)C4(Cl)C(Cl)(Cl)C5(Cl)C3(Cl)C1(Cl)C5(Cl)C24Cl` (stereo not given) was tested. Which outcome did it give?
A: Its outcome is “inactive; negative”.

Q: `CCN(CC)C(=O)c1cccc(C)c1` was tested. Which outcome did it give?
A: Its outcome is “inactive; negative”.

Q: Which outcome does the source give for `CCOc1ccc(NC(C)=O)cc1` here?
A: The outcome was “inactive; negative”.

Q: With `C=C(C)[C@@]12O[C@@]3(c4ccccc4)O[C@@H]1[C@@H]1[C@@H]4O[C@]4(CO)[C@@H](O)[C@]4(O)C(=O)C(C)=C[C@H]4[C@@]1(O3)[C@H](C)[C@H]2OC(=O)/C=C/C=C/c1ccccc1` as the compound, how does the outcome read?
A: The outcome was “inactive; negative”.

Q: With `OCC(CO)(CBr)CBr` as the compound, how does the outcome read?
A: The outcome was “active; positive”.

Q: How did the outcome turn out when `CC(C)CCC(C)Nc1ccc(NC(C)CCC(C)C)cc1` (stereo not given) was run?
A: The outcome was “inactive; negative”.

Q: How did the outcome turn out when `O=C(O)c1cc(O)c2c(c1)[C@@H]([C@H]1c3cc(C(=O)O)cc(O)c3C(=O)c3c(O[C@@H]4O[C@H](CO)[C@@H](O)[C@H](O)[C@H]4O)cccc31)c1cccc(O[C@@H]3O[C@H](CO)[C@@H](O)[C@H](O)[C@H]3O)c1C2=O` was run?
A: Its outcome is “inactive; negative”.

Q: How did the outcome turn out when `N#CCO` was run?
A: Its outcome is “inactive; negative”.

Q: With `[O-]/[N+](=N\O)c1ccccc1` as the compound, how does the outcome read?
A: Its outcome is “active; positive”.

Q: For `OCCNCCO`, which outcome is on record?
A: Its outcome is “inactive; negative”.

Q: Which outcome does the source give for `Nc1cc([N+](=O)[O-])cc(Cl)c1O` here?
A: Its outcome is “active; positive”.

Q: `C=CCCCC` was tested. Which outcome did it give?
A: The outcome was “inactive; negative”.

Q: Which outcome does the source give for `COc1c2ccoc2cc2oc(=O)ccc12` here?
A: Its outcome is “active; positive”.

Q: For `NCN`, which outcome is on record?
A: Its outcome is “active; positive”.

Q: `OCC#CCO` was tested. Which outcome did it give?
A: The outcome was “inactive; negative”.

Q: How did the outcome turn out when `O=c1c2ccc3c4c(ccc(c24)c2nc4ccccc4n12)c(=O)n1c2ccccc2nc31` was run?
A: The outcome was “active; positive”.

Q: `CCCCCCc1ccc(O)cc1O` was tested. Which outcome did it give?
A: Its outcome is “inactive; negative”.

Q: With `N[C@H](Cc1ccccc1)C(=O)O` as the compound, how does the outcome read?
A: Its outcome is “inactive; negative”.

Q: For `CC(C)(c1cc(Br)c(OCC(Br)CBr)c(Br)c1)c1cc(Br)c(OCC(Br)CBr)c(Br)c1` (stereo not given), which outcome is on record?
A: Its outcome is “inactive; negative”.

Q: How did the outcome turn out when `Cc1cccc([N+](=O)[O-])c1N` was run?
A: Its outcome is “active; positive”.

Q: Which outcome does the source give for `CCCN(CCC)C(=O)CN` here?
A: The outcome was “active; positive”.

Q: How did the outcome turn out when `CC(N)=O` was run?
A: The outcome was “inactive; negative”.

Q: How did the outcome turn out when `[CH3][Sn]([CH3])([Cl])[Cl]` was run?
A: Its outcome is “inactive; negative”.

Q: How did the outcome turn out when `CCC(CO)[N+](=O)[O-]` (stereo not given) was run?
A: The outcome was “inactive; negative”.

Q: For `Cc1ccccc1C=O`, which outcome is on record?
A: Its outcome is “inactive; negative”.

Q: For `CCCCC1C(=O)N(c2ccccc2)N(c2ccccc2)C1=O`, which outcome is on record?
A: Its outcome is “inactive; negative”.

Q: `O=C(O)C(F)(F)C(F)(F)C(F)(F)C(F)(F)C(F)(F)C(F)(F)C(F)(F)C(F)(F)C(F)(F)C(F)(F)C(F)(F)F` was tested. Which outcome did it give?
A: The outcome was “inactive; negative”.

Q: For `CN(C(=O)CN(CCO)CC(=O)N(C)C(C)(C)Cc1ccccc1)C(C)(C)Cc1ccccc1`, which outcome is on record?
A: The outcome was “inactive; negative”.

Q: Which outcome does the source give for `CCCCCC[C@@H](O)C/C=C\CCCCCCCC(=O)O` here?
A: Its outcome is “inactive; negative”.

Q: Which outcome does the source give for `Nc1ccc(-c2ccc(N)c(O)c2)cc1O` here?
A: The outcome was “active; positive”.

Q: With `O=C(O)CCCC(=O)O` as the compound, how does the outcome read?
A: Its outcome is “inactive; negative”.

Q: `O=C(OCC(COC(=O)c1ccccc1)(COC(=O)c1ccccc1)COC(=O)c1ccccc1)c1ccccc1` was tested. Which outcome did it give?
A: The outcome was “inactive; negative”.

Q: How did the outcome turn out when `CCCCNS(=O)(=O)c1ccccc1` was run?
A: The outcome was “inactive; negative”.

Q: For `O=[N+]([O-])c1ccc(CCO)cc1`, which outcome is on record?
A: The outcome was “active; positive”.

Q: How did the outcome turn out when `COC(=O)C1CCC(C)CC1` (stereo not given) was run?
A: The outcome was “inactive; negative”.

Q: For `O=NO`, which outcome is on record?
A: Its outcome is “active; positive”.

Q: With `C1CC2OC2CC1C1CO1` (stereo not given) as the compound, how does the outcome read?
A: Its outcome is “active; positive”.

Q: With `O=C(Cl)c1ccc([N+](=O)[O-])cc1` as the compound, how does the outcome read?
A: Its outcome is “active; positive”.

Q: For `OCCOCCO`, which outcome is on record?
A: The outcome was “inactive; negative”.

Q: With `CN(CCO)CCO` as the compound, how does the outcome read?
A: The outcome was “inactive; negative”.

Q: Which outcome does the source give for `COC(=O)C(c1ccccc1)C1CCCCN1` (stereo not given) here?
A: The outcome was “inactive; negative”.

Q: For `C[S+](CC[C@H](N)C(=O)[O-])C[C@H]1O[C@@H](n2cnc3c(N)ncnc32)[C@H](O)[C@@H]1O` (stereo not given in full), which outcome is on record?
A: The outcome was “inactive; negative”.

Q: Which outcome does the source give for `O=C1Nc2ccc(Cl)cc2[C@@](C#CC2CC2)(C(F)(F)F)O1` here?
A: The outcome was “inactive; negative”.

Q: How did the outcome turn out when `O.O.O.O.O.O.O.O=S(=O)([O-])[O-].[Co+2]` was run?
A: Its outcome is “active; weakly positive”.

Q: Which outcome does the source give for `BrC/C=C/CBr` here?
A: Its outcome is “active; positive”.

Q: With `CC(C)(Cl)[N+](=O)[O-]` as the compound, how does the outcome read?
A: Its outcome is “active; weakly positive”.

Q: For `O=[N+]([O-])c1ccccc1C(F)(F)F`, which outcome is on record?
A: Its outcome is “inactive; negative”.

Q: For `c1ccc(COCc2ccccc2)cc1`, which outcome is on record?
A: The outcome was “inactive; negative”.

Q: How did the outcome turn out when `C=CCOC(=O)COCCC(C)C` was run?
A: Its outcome is “inactive; negative”.

Q: Which outcome does the source give for `ONc1ccccc1` here?
A: Its outcome is “active; positive”.

Q: With `O=C1c2c(O)ccc(Nc3ccc(CCO)cc3)c2C(=O)c2c([N+](=O)[O-])ccc(O)c21` as the compound, how does the outcome read?
A: Its outcome is “active; positive”.

Q: How did the outcome turn out when `CON` was run?
A: The outcome was “inactive; negative”.
